From ChEMBL document CHEMBL3885861, “Open TG-GATES”

Species: Rattus norvegicus
Assay: Open TG-GATES - Regimen: Daily Repeat
Type: toxicity, organism-based, Sprague-Dawley
Parameters: regimen Daily Repeat, gender Male, age 6 weeks
Details: in vivo, po, 0 mg/kg, route gavage, dose level Control; for APTT / Bas / Eos / Fbg / Hb / Ht / Lym / MCH / MCHC / MCV / Mono / Neu / PT / Plat / RBC / Ret / WBC: tissue Blood; for KIDNEY_L / KIDNEY_R / KIDNEY_TOTAL: tissue Kidney; for LIVER: tissue Liver; for A/G / ALP / ALT / AST / BUN / CRE / Ca / Cl / DBIL / GLC / IP / K / LDH / Na / PL / RALB / TBIL / TC / TG / TP / gamma-GTP: tissue Plasma

## COc1ccc2c(c1)c(CC(=O)O)c(C)n2C(=O)c1ccc(Cl)cc1 [INDOMETHACIN]
72 h, time 3 day
  TERMINAL_BW: 239.9 g
  APTT: 17 s
  Bas: 0%
  Eos: 0.8%
  Fbg: 211.8 mg/dL
  Hb: 13.4 g/dL
  Ht: 40.3%
  Lym: 81.4%
  MCH: 21.4 pg
  MCHC: 33.1%
  MCV: 64.6 fL
  Mono: 8%
  Neu: 10.2%
  PT: 11.2 s
  Plat: 122 x10_4/uL
  RBC: 625.2 x10_4/ul
  Ret: 7.6%
  WBC: 117.2 x10_2/uL
  KIDNEY_L: 1 g
  KIDNEY_R: 1.1 g
  KIDNEY_TOTAL: 2.1 g
  LIVER: 11.9 g
  A/G: 2.1
  ALP: 1154.8 IU/L
  ALT: 33.2 IU/L
  AST: 60 IU/L
  BUN: 15.4 mg/dL
  CRE: 0.6 mg/dL
  Ca: 10.5 mg/dL
  Cl: 107 meq/L
  DBIL: 0.032 mg/dL
  GLC: 201.8 mg/dL
  IP: 7.4 mg/dL
  K: 4.8 meq/L
  LDH: 95.2 IU/L
  Na: 139.6 meq/L
  PL: 144.4 mg/dL
  RALB: 3.9 g/dL
  TBIL: 0.4 mg/dL
  TC: 74.2 mg/dL
  TG: 86.8 mg/dL
  TP: 5.7 g/dL
  gamma-GTP: 1 IU/L
[…], time 7 day
  TERMINAL_BW: 269.3 g
  APTT: 16.5 s
  Bas: 0%
  Eos: 1%
  Fbg: 223.6 mg/dL
  Hb: 14.1 g/dL
  Ht: 42.4%
  Lym: 82%
  MCH: 20.9 pg
  MCHC: 33.3%
  MCV: 62.8 fL
  Mono: 6.8%
  Neu: 10%
  PT: 11.8 s
  Plat: 106.3 x10_4/uL
  RBC: 675 x10_4/ul
  Ret: 5.7%
  WBC: 126.2 x10_2/uL
  KIDNEY_L: 1.2 g
  KIDNEY_R: 1.2 g
  KIDNEY_TOTAL: 2.4 g
  LIVER: 13.2 g
  A/G: 2
  ALP: 925.4 IU/L
  ALT: 33 IU/L
  AST: 63.2 IU/L
  BUN: 18.4 mg/dL
  CRE: 0.5 mg/dL
  Ca: 10.7 mg/dL
  Cl: 106.8 meq/L
  DBIL: 0.012 mg/dL
  GLC: 202.2 mg/dL
  IP: 8.3 mg/dL
  K: 5 meq/L
  LDH: 97.4 IU/L
  Na: 139 meq/L
  PL: 144.8 mg/dL
  RALB: 4 g/dL
  TBIL: 0.3 mg/dL
  TC: 69.2 mg/dL
  TG: 126.8 mg/dL
  TP: 6.1 g/dL
  gamma-GTP: 0.6 IU/L
[…], time 14 day
  TERMINAL_BW: 339.4 g
  APTT: 16.7 s
  Bas: 0%
  Eos: 0.6%
  Fbg: 228.8 mg/dL
  Hb: 13.9 g/dL
  Ht: 41.7%
  Lym: 84.2%
  MCH: 20.1 pg
  MCHC: 33.4%
  MCV: 60.3 fL
  Mono: 5%
  Neu: 10.4%
  PT: 11.8 s
  Plat: 110.6 x10_4/uL
  RBC: 691.2 x10_4/ul
  Ret: 5.1%
  WBC: 148.4 x10_2/uL
  KIDNEY_L: 1.3 g
  KIDNEY_R: 1.3 g
  KIDNEY_TOTAL: 2.6 g
  LIVER: 16 g
  A/G: 1.8
  ALP: 780.8 IU/L
  ALT: 30.6 IU/L
  AST: 60.6 IU/L
  BUN: 19.8 mg/dL
  CRE: 0.6 mg/dL
  Ca: 10.4 mg/dL
  Cl: 105.6 meq/L
  DBIL: 0.012 mg/dL
  GLC: 201.2 mg/dL
  IP: 8.5 mg/dL
  K: 4.8 meq/L
  LDH: 82.6 IU/L
  Na: 138.2 meq/L
  PL: 147.6 mg/dL
  RALB: 3.9 g/dL
  TBIL: 0.3 mg/dL
  TC: 72.4 mg/dL
  TG: 130.4 mg/dL
  TP: 6.2 g/dL
  gamma-GTP: 1.6 IU/L
[…], time 28 day
  TERMINAL_BW: 433.9 g
  APTT: 15.3 s
  Bas: 0%
  Eos: 0.8%
  Fbg: 256.8 mg/dL
  Hb: 14.6 g/dL
  Ht: 44.4%
  Lym: 86.8%
  MCH: 18.5 pg
  MCHC: 32.9%
  MCV: 56.1 fL
  Mono: 4.4%
  Neu: 7.8%
  PT: 11.8 s
  Plat: 112.3 x10_4/uL
  RBC: 792.2 x10_4/ul
  Ret: 3.2%
  WBC: 153.4 x10_2/uL
  KIDNEY_L: 1.5 g
  KIDNEY_R: 1.5 g
  KIDNEY_TOTAL: 3 g
  LIVER: 19.6 g
